Where two headings read alike, the source gives them in different places.
How the values were obtained:
Meloidogyne incognita [1] = experiment: Meloidogyne incognita test, comparative examples (soil drench, lettuce); assay type: in vivo; conditions: 504 h, MELGIN, 21dat
Description: Meloidogyne incognita Test [table] To produce a suitable active compound preparation, 1 part by weight of active compound is mixed with the specified amounts of solvent and emulsifier, and the concentrate is diluted with water to the desired concentration, it being necessary to include the volume of soil which is drenched in the calculation. It should be ensured that a concentration of 20 ppm of emulsifier in the soil is not exceeded. To produce further test concentrations, water is used for dilution. Pots filled with soil (loamy sand) are watered with the active compound solution. An egg/larvae suspension of the southern root-knot nematode (Meloidogyne incognita) is added, lettuce seeds are scattered over the surface of the soil, and they are covered over with quartz sand. The lettuce seeds germinate and the plants develop. The galls develop on the roots. After 21 days, the nematicidal efficacy in % is determined by the formation of galls. 100% means that no galls have been found; 0% means that the number of galls on the treated plants corresponds to the untreated control.

[2] = log P by HPLC on reversed-phase column (C18), EEC Directive 79/831 Annex V.A8; assay type: physicochemical
Description: The log P values were determined according to EEC Directive 79/831 Annex V.A8 by HPLC (high-performance liquid chromatography) on a reversed-phase column (C18). Temperature 43° C. The calibration is effected with unbranched alkan-2-ones (having 3 to 16 carbon atoms), for which the log P values are known. Here, the terms acidic and neutral are defined analogously to the definitions below for the determination of M^+. The determination of the M^+ by LC-MS in the acidic range was carried out at pH 2.7 using the mobile phases 0.1% aqueous formic acid and acetonitrile (contains 0.1% formic acid); linear gradient from 10% acetonitrile to 95% acetonitrile, instrument: Agilent 1100 LC system, Agilent MSD system, HTS PAL. The determination of the M^+ by LC-MS in the neutral range was carried out at pH 7.8 using the mobile phases 0.001 molar aqueous ammonium bicarbonate solution and acetonitrile; linear gradient from 10% acetonitrile to 95% acetonitrile.

Meloidogyne incognita [3] = experiment: Meloidogyne incognita test (sand, lettuce, gall formation); assay type: in vivo; conditions: Meloidogyne incognita, 336 h, 20 ppm, after 14 days; read-out: nematicidal efficacy (formation of galls)
Method in brief: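 Gall counts on lettuce roots were scored after 14 days in sand inoculated with root-knot nematode eggs/larvae plus compound diluted in water. Values run from 0% (galls as in untreated plants) to 100% (gall-free).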

Myzus persicae [4] = experiment: Myzus persicae spray test (Chinese cabbage leaf discs); assay type: in vivo; conditions: foliar, 144 h, 500 g/ha, after 6 days, read-out: efficacy
Description: Myzus persicae—Spray Test [table] To produce a suitable active compound preparation, 1 part by weight of active compound is dissolved with the specified parts by weight of solvent and made up to the desired concentration with water containing an emulsifier concentration of 1000 ppm. To produce further test concentrations, the formulation is diluted with emulsifier-containing water. Discs of Chinese cabbage leaves (Brassica pekinensis) infested by all stages of the green peach aphid (Myzus persicae) are sprayed with an active compound preparation of the desired concentration. After 6 days, the efficacy in % is determined. 100% means that all the aphids have been killed; 0% means that no aphids have been killed.

Tetranychus urticae = Tetranychus urticae spray test, OP-resistant; assay type: in vivo; conditions: foliar, 144 h, bean leaf discs, after 6 days, read-out: efficacy
Description: Tetranychus urticae—Spray Test, OP-Resistant
To produce a suitable active compound preparation, 1 part by weight of active compound is dissolved with the specified parts by weight of solvent and made up to the desired concentration with water containing an emulsifier concentration of 1000 ppm. To produce further test concentrations, the formulation is diluted with emulsifier-containing water.
Discs of bean leaves (Phaseolus vulgaris) infested with all stages of the greenhouse red spider mite (Tetranychus urticae) are sprayed with an active compound preparation of the desired concentration.
After 6 days, the efficacy in % is determined. 100% means that all the spider mites have been killed; 0% means that no spider mites have been killed.

Myzus persicae [5] = experiment: Myzus persicae oral test; assay type: in vivo; conditions: 120 h, 20 ppm, after 5 days, read-out: efficacy
Description: Myzus persicae—Oral Test [table] To produce a suitable active compound preparation, 1 part by weight of active compound is dissolved with the stated parts by weight of solvent and made up to the desired concentration with water. 50 μl of the active compound preparation are transferred into microtitre plates and made up to a final volume of 200 μl with 150 μl of IPL41 insect medium (33%+15% sugar). Subsequently, the plates are sealed with parafilm, which a mixed population of green peach aphids (Myzus persicae) within a second microtitre plate is able to puncture and imbibe the solution through it. After 5 days, the efficacy in % is determined. 100% means that all the aphids have been killed; 0% means that no aphids have been killed.

Boophilus microplus = Boophilus microplus injection test; assay type: in vivo; conditions: 20 μg/animal, after 7 days
Description: Boophilus microplus—Injection Test Solvent: dimethyl sulfoxide To produce a suitable active compound preparation, 10 mg of active compound are mixed with 0.5 ml of solvent and the concentrate is diluted to the desired concentration with solvent. 1 μl of the active compound solution is injected into the abdomen of 5 engorged adult female cattle ticks (Boophilus microplus). The animals are transferred into dishes and kept in a climate-controlled room. Efficacy is assessed after 7 days by laying of fertile eggs. Eggs which are not visibly fertile are stored in a climate-controlled cabinet until the larvae hatch after about 42 days. An efficacy of 100% means that none of the ticks has laid any fertile eggs; 0% means that all the eggs are fertile.

[6] = reversed-phase C18 HPLC column, pH 2.7, HCOOH (formic acid mobile phase), 43° C., read-out: log P (HCOOH)
[7] = reversed-phase C18 HPLC column, neutral range, pH 7.8, aqueous ammonium bicarbonate/acetonitrile, 43° C., read-out: log P (neutral)
[8] = reversed-phase C18 HPLC column, acidic range, pH 2.7, 0.1% aqueous formic acid/acetonitrile, 43° C., read-out: log P (acidic)

## COc1ccc(Cl)c(S(=O)(=O)NC(=O)c2cc3cc(Cl)cc(Cl)n3n2)c1
Meloidogyne incognita [1]
  nematode control efficacy (%) at 1 ppm: 0%

## COc1ccc(Cl)c(S(=O)(=O)NC(=O)c2cc3c(Cl)cc(C(F)(F)F)cn3n2)c1
Meloidogyne incognita [1]
  nematode control efficacy (%) at 8 ppm: 30%

## COc1ccc(Cl)c(S(=O)(=O)NC(=O)c2cn3cc(C(F)(F)F)cc(Cl)c3n2)c1
Meloidogyne incognita [1]
  nematode control efficacy (%) at 0.5 ppm: 55%

## O=C(O)c1cn(Cc2c(F)cccc2F)cn1 [1-(2,6-difluorobenzyl)-1H-imidazole-4-carboxylic acid]
[2]; pH 2.7
  chromatographic logP: 0.42

## Cc1nc(C(=O)O)cn1-c1ccccc1Cl [1-(2-chlorophenyl)-2-methyl-1H-imidazole-4-carboxylic acid]
[2]; [6]
  chromatographic logP: 0.67
[2]; [7]
  chromatographic logP: -0.01

## Cc1nc(C(=O)NS(=O)(=O)c2ccccc2Cl)cn1-c1ccccc1Cl [1-(2-chlorophenyl)-N-[(2-chlorophenyl)sulfonyl]-2-methyl-1H-imidazole-4-carboxamide]
[2]; [7]
  chromatographic logP: 0.85

## O=C(O)c1nc(Br)n(CCC(F)(F)F)c1Br [2,5-dibromo-1-(3,3,3-trifluoropropyl)-1H-imidazole-4-carboxylic acid]
[2]; pH 2.7
  chromatographic logP: 1.49

## O=C(NS(=O)(=O)c1ccccc1Cl)c1nc(Br)n(CCC(F)(F)F)c1Br [2,5-dibromo-N-[(2-chlorophenyl)sulfonyl]-1-(3,3,3-trifluoropropyl)-1H-imidazole-4-carboxamide]
[2]; [6]
  chromatographic logP: 2.99

## CCCn1cnc(C(=O)O)c1Cl [5-chloro-1-propyl-1H-imidazole-4-carboxylic acid]
[2]; pH 2.7
  chromatographic logP: 0.6

## CCCn1cnc(C(=O)NS(=O)(=O)c2ccc(OC)cc2)c1Cl [5-chloro-N-[(4-methoxyphenyl)sulfonyl]-1-propyl-1H-imidazole-4-carboxamide]
[2]; [7]
  chromatographic logP: 0.56

## O=C(NS(=O)(=O)Cc1ccccc1Cl)c1ncn(CCC(F)(F)F)c1Cl [I-085]
Meloidogyne incognita [3]
  pest or weed control at 20 ppm: 90%
Myzus persicae [4]
  pest or weed control at 500 g/ha: 70%
Tetranychus urticae
  pest or weed control at 500 g/ha: 70%

## COc1ccc(Cl)c(S(=O)(=O)NC(=O)c2nc(Cl)n(-c3cc(Cl)cc(Cl)c3)c2Cl)c1 [I-113]
Meloidogyne incognita [3]
  pest or weed control at 20 ppm: 100%
Meloidogyne incognita [1]
  nematode control efficacy (%) at 0.5 ppm: 100%

## CC(C)S(=O)(=O)NC(=O)c1cn(C)c(Cc2ccc(Cl)cc2)n1 [I-122]
Meloidogyne incognita [3]
  pest or weed control at 20 ppm: 90%
Myzus persicae [4]
  pest or weed control at 500 g/ha: 90%
Tetranychus urticae
  pest or weed control at 500 g/ha: 100%

## COc1ccc(Cl)c(S(=O)(=O)NC(=O)c2cc(-c3cc(Cl)cc(Cl)c3)n(C)n2)c1 [I-137]
Meloidogyne incognita [3]
  pest or weed control at 20 ppm: 100%
Meloidogyne incognita [1]
  nematode control efficacy (%) at 1 ppm: 85%

## COc1ccc(Cl)c(S(=O)(=O)NC(=O)c2cc(-c3cc(Cl)cc(C(F)(F)F)c3)n(C)n2)c1 [I-141]
Meloidogyne incognita [3]
  pest or weed control at 20 ppm: 90%
Meloidogyne incognita [1]
  nematode control efficacy (%) at 8 ppm: 99%

## Cc1nc(C(=O)NS(=O)(=O)c2ccccc2Cl)cn1Cc1ccc(Cl)cc1 [I-170]
Meloidogyne incognita [3]
  pest or weed control at 20 ppm: 100%
Myzus persicae [5]
  pest or weed control at 20 ppm: 90%
Tetranychus urticae
  pest or weed control at 500 g/ha: 90%

## Cc1nc(C(=O)NS(=O)(=O)c2ccccc2)cn1Cc1ccccc1Cl [I-171]
Meloidogyne incognita [3]
  pest or weed control at 20 ppm: 100%
Myzus persicae [4]
  pest or weed control at 500 g/ha: 70%
Tetranychus urticae
  pest or weed control at 500 g/ha: 90%

## O=C(NS(=O)(=O)c1ccccc1Cl)c1cn(-c2ccc(C(F)(F)F)cc2Cl)cn1 [I-197]
Meloidogyne incognita [3]
  pest or weed control at 20 ppm: 100%
Tetranychus urticae
  pest or weed control at 500 g/ha: 70%

## Cc1nc(C(=O)NS(=O)(=O)c2ccccc2)cn1-c1ccccc1F [I-255]
Meloidogyne incognita [3]
  pest or weed control at 20 ppm: 100%
Tetranychus urticae
  pest or weed control at 500 g/ha: 70%

## Cc1cc(C)cc(-n2cnc(C(=O)NS(=O)(=O)c3ccccc3)c2)c1 [I-284]
Boophilus microplus
  efficacy (laying of fertile eggs): 100%
Meloidogyne incognita [3]
  pest or weed control at 20 ppm: 70%
Myzus persicae [5]
  pest or weed control at 20 ppm: 100%

## Cc1nc(C(=O)NS(=O)(=O)c2cc(Cl)ccc2Cl)cn1-c1cc(F)cc(Cl)c1 [I-330]
Meloidogyne incognita [3]
  pest or weed control at 20 ppm: 100%
Tetranychus urticae
  pest or weed control at 500 g/ha: 70%

## COc1ccc(Cl)c(S(=O)(=O)NC(=O)c2cn(C)c(Cc3ccccc3)n2)c1 [I-373]
Meloidogyne incognita [3]
  pest or weed control at 20 ppm: 70%
Tetranychus urticae
  pest or weed control at 500 g/ha: 90%

## CCSc1cccc(Cl)c1S(=O)(=O)NC(=O)c1cn(-c2cc(Cl)cc(Cl)c2)cn1 [I-391]
Meloidogyne incognita [3]
  pest or weed control at 20 ppm: 100%
Tetranychus urticae
  pest or weed control at 500 g/ha: 70%

## COc1ccc(Cl)c(S(=O)(=O)NC(=O)c2nc(Cl)n(C3CC3C(F)(F)F)c2Cl)c1 (centres unmarked) [I-470]
Meloidogyne incognita [3]
  pest or weed control at 20 ppm: 100%
Meloidogyne incognita [1]
  nematode control efficacy (%) at 0.5 ppm: 100%

## COc1ccc(Cl)c(S(=O)(=O)NC(=O)c2ncn(-c3ccc(Cl)cc3)c2C(C)C)c1 [I-483]
Meloidogyne incognita [3]
  pest or weed control at 20 ppm: 70%
Tetranychus urticae
  pest or weed control at 500 g/ha: 80%

## Cn1nc(C(=O)NS(=O)(=O)c2cc(Cl)ccc2Cl)cc1-c1cccc(C(F)(F)F)c1 [N-[(2,5-dichlorophenyl)sulfonyl]-1-methyl-5-[3-(trifluoromethyl)phenyl]-1H-pyrazole-3-carboxamide]
[2]; [8]
  chromatographic logP: 3.84

## COc1ccc(Cl)c(S(=O)(=O)NC(=O)c2cn(Cc3c(F)cccc3F)cn2)c1 [N-[(2-chloro-5-methoxyphenyl)sulfonyl]-1-(2,6-difluorobenzyl)-1H-imidazole-4-carboxamide]
[2]; [8]
  chromatographic logP: 2.18

## COc1ccc(Cl)c(S(=O)(=O)NC(=O)c2nc(C)n(-c3cc(Cl)cc(Cl)c3)c2F)c1 [N-[(2-chloro-5-methoxyphenyl)sulfonyl]-1-(3,5-dichlorophenyl)-5-fluoro-2-methyl-1H-imidazole-4-carboxamide]
[2]; [8]
  chromatographic logP: 3.71

## CCOC(=O)c1cn(-c2ccccc2Cl)c(C)n1 [ethyl 1-(2-chlorophenyl)-2-methyl-1H-imidazole-4-carboxylate]
[2]; [7]
  chromatographic logP: 2.06

## CCCn1cnc(C(=O)OCC)c1N [ethyl 5-amino-1-propyl-1H-imidazole-4-carboxylate]
[2]; [7]
  chromatographic logP: 0.9

## CCCn1cnc(C(=O)OCC)c1Cl [ethyl 5-chloro-1-propyl-1H-imidazole-4-carboxylate]
[2]; [7]
  chromatographic logP: 1.7

## COC(=O)c1cn(Cc2c(F)cccc2F)cn1 [methyl 1-(2,6-difluorobenzyl)-1H-imidazole-4-carboxylate]
[2]; [8]
  chromatographic logP: 1.45
[2]; [7]
  chromatographic logP: 1.55

## COC(=O)c1cn(CCC(F)(F)F)cn1 [methyl 1-(3,3,3-trifluoropropyl)-1H-imidazole-4-carboxylate]
[2]; [6]
  chromatographic logP: 0.87

## COC(=O)c1nc(Br)n(CCC(F)(F)F)c1Br [methyl 2,5-dibromo-1-(3,3,3-trifluoropropyl)-1H-imidazole-4-carboxylate]
[2]; [6]
  chromatographic logP: 2.13

From patent US10820591B2, “Substituted sulfonyl amides for controlling animal pests” (Bayer Aktiengesellschaft, priority 2016, dated 2020)
